The source of these data is paper PMC6445193 (Journal of Enzyme Inhibition and Medicinal Chemistry, 2017).

For data set [1], the target named is T1, human S-adenosyl-homocysteine hydrolase (rSAHH) (Homo sapiens, UniProt P23526). Description: SAHH inhibition, IC50 determination with recombinant SAHH (hydrolysis of SAH, Hcy determined with DTNB). The class given is biochemical.
Experimental: The activity of SAHH was expressed in units (U), which were defined as 1 μmol of SAH catalyzed by the enzyme per minute. Specific enzymatic activities (aspec) were calculated through the division of the enzymatic activities by the total protein amount used per assay and are expressed in U/mg. […] All of the values shown correspond to the mean values of at least three independent experiments, each of which was conducted in duplicate and all of the calculations were performed using Origin version 8.5 software and GraphPad Prism 5.
Stock solution of compounds (1 mM) for enzyme inhibition was prepared in DMSO. Both enzymes and substrates are diluted in Tris-HCl (pH = 6.5) to specified concentration when used for IC50 determination.
SAH is hydrolysed by SAHH into Hcy and adenosine. And Hcy can be directly determined using Ellman reagent (DTNB)[17].
Details of data set [2]: method as in PMID 24813734. The conditions noted are these: long term exposure; cited from earlier work.
Another data set has as its system SAHH. Set-up: method as in PMID 24813734. As to conditions: data from literature; cited from earlier work.
Another data set deals with brain homocysteine. Set-up: method as in PMID 24813734. The conditions noted are these: reported by Converso; cited from earlier work.
Data set [3] has as its target T1, human S-adenosyl-homocysteine hydrolase (rSAHH). As to the kind of experiment: Enzyme kinetics of SAHH-catalyzed hydrolysis of SAH. In kind it is biochemical.
Experimental: The activity of SAHH was expressed in units (U), which were defined as 1 μmol of SAH catalyzed by the enzyme per minute. Specific enzymatic activities (aspec) were calculated through the division of the enzymatic activities by the total protein amount used per assay and are expressed in U/mg. SAHH enzyme reacted with the SAH at different temperature and different pH, in order to identify its optimal reaction conditions. All of the values shown correspond to the mean values of at least three independent experiments, each of which was conducted in duplicate and all of the calculations were performed using Origin version 8.5 software and GraphPad Prism 5.
The enzyme kinetic parameters (Km and Kcat) were calculated by least-squares fitting of the activity data at various substrate concentrations to the Michaelis–Menten equation with Origin version 8.5 software (Microcal Software, Northampton, MA).
Where [4] appears, read: recombinant human SAHH, Tris-HCl pH 6.5, read-out: SAHH IC50.

Where two headings read alike, the source gives them in different places.

T1 sequence (P23526 whole entry): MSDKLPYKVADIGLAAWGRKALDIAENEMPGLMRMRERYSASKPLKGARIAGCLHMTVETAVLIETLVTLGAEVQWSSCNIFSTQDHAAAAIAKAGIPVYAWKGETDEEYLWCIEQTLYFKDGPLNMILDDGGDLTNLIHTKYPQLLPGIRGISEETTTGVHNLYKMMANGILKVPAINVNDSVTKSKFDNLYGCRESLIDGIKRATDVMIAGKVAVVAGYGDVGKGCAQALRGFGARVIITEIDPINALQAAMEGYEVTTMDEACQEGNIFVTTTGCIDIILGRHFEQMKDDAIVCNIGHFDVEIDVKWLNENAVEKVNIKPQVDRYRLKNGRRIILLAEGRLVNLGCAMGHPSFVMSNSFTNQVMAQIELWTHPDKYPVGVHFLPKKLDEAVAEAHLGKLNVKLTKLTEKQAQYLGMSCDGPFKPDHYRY

One may read the IC50 as the concentration that gives 50% inhibition. As to `O=C(O)/C=C/c1ccc(Cl)cc1` [Compound 12], in data set [1] (setting [4]), the IC50 turned out to be 571 nM. With `Nc1ncnc2c1ncn2[C@@H]1C=C(CO)[C@@H](O)[C@H]1O` [NepA, Neplanocin A], the cytotoxicity result in data set [2] is on record as “cytotoxic upon long term exposure”. Further, in the data set with SAHH, the IC50 was 1.5 nM. With `O=C(O)c1ccc(F)cc1` [Compound 8], the IC50 in data set [1] (setting [4]) turned out to be 679 nM. Same read-out and setting: the same measure for `COc1ccc(N)cc1` [Compound 9]: 899 nM; for `COc1ccc(/C=C/C(=O)O)cc1` [Compound 11]: 986 nM. `COc1cc(C=O)ccc1O` [Compound 5]: in data set [1] (setting [4]), the IC50 is 1100 nM. On the same count and under the same terms, the same measure for `COc1cc(C=CCO)ccc1O` [Compound 13, 4-(3-hydroxyprop-1-en-1-yl)-2-methoxyphenol]: 34 nM. With `Fc1ccc(CBr)c(F)c1` [Compound 3], the half-maximal inhibitory concentration (IC50) in data set [1] was 913 nM.

Take `O=C(OO)c1ccc(Cl)cc1` [Compound 6]: the IC50 in data set [1] was 565 nM. With `CCOC(=O)c1ccc(N)cc1` [Compound 10], the IC50 in data set [1] (setting [4]) is 1400 nM.

On to `COc1ccc(C=O)cc1` [Compound 2], for which the IC50 in data set [1] (setting [4]) is 2130 nM.

Turning to `COC(=O)/C=C/c1ccc(CBr)cc1` [Compound 4], the IC50 in data set [1] (setting [4]) was determined as 814 nM. Take `On1nnc2ccccc21` [Compound 1]: the IC50 in data set [1] stood at 1240 nM.

Regarding `Nc1ncc(F)c2c1ncn2[C@@H]1CC[C@@H](O)[C@H]1O` [20 ^*], the “effect on brain homocysteine” value in the data set with brain homocysteine is given as “reduce brain homocysteine in a dose-dependent manner”. Also, in the data set with SAHH, the half-inhibitory concentration (IC50) was 40 nM. Regarding `Oc1ccc(Cl)c(O)c1` [Compound 7], the 50% inhibitory concentration (IC50) in data set [1] is 1110 nM.

Usually Km stands for the substrate concentration at which the rate is half of its maximum. Usually Vmax stands for the rate approached at saturating substrate. `Nc1ncnc2c1ncn2[C@@H]1O[C@H](CSCC[C@H](N)C(=O)O)[C@@H](O)[C@H]1O` [SAH, S-adenosylhomocysteine]: the Michaelis-Menten constant (Km) in data set [3] (read-out: apparent Km of the hydrolytic reaction, substrate SAH) was about 21.8 µM. Moreover, in data set [3] (substrate SAH), the Vmax came out at 22.9 µM/min.
